Results from BigSolDB 2.1.

Settings: in NMP

O=C1OC(=O)[C@H]2[C@@H]1[C@@H]1C=C[C@H]2C1
Settings | solubility (mole fraction)
278.15 K | 0.112
283.15 K | 0.126
288.15 K | 0.14
293.15 K | 0.156
298.15 K | 0.172
303.15 K | 0.19
308.15 K | 0.209
313.15 K | 0.225
318.15 K | 0.245
323.15 K | 0.265
